What follows are compounds tested against T1, PDE4D3 (Homo sapiens, UniProt Q08499). Conditions: GST-tagged PDE4D3, 200 nM FAM-cAMP, 11-point dose-response; read-out: PD4d3 pEC50 (converted).
T1 construct: GST
T1 sequence (Q08499 1-673 isoform Q08499-2): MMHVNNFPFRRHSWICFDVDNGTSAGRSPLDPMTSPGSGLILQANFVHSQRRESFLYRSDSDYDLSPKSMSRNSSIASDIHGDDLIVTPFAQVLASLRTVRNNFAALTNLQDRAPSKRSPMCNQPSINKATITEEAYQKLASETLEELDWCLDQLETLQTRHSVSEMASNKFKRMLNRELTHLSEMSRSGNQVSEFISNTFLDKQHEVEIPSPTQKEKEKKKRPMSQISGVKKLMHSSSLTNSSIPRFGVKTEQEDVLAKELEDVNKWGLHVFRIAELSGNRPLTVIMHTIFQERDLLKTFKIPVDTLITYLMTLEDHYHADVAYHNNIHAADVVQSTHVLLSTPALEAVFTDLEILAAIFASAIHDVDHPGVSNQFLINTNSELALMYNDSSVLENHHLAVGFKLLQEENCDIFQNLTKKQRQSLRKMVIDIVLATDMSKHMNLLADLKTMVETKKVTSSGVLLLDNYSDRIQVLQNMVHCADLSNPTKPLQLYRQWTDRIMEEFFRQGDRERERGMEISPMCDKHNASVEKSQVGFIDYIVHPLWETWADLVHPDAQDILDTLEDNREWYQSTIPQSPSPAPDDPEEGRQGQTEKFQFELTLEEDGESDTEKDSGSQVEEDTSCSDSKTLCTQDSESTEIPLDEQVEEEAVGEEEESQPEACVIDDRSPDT
Format: biochemical
Compound `CCOc1cccc(-c2cc(Cn3cnc(CO)n3)cnc2OCC)c1` [Example 334, (1-{[6-Ethoxy-5-(3-ethoxyphenyl)pyridin-3-yl]methyl}-1H-1,2,4-triazol-3-yl)methanol] has an EC50 of 100 to 1000 nM. `CCOc1ncc(Cn2cnc(CO)n2)cc1-c1cccc(N(C)C)c1` [Example 335, [1-({5-[3-(Dimethylamino)phenyl]-6-ethoxypyridin-3-yl}methyl)-1H-1,2,4-triazol-3-yl]methanol] gave an EC50 of 1000 to 10000 nM. Work on `COc1ncc(Cn2cnc(CO)n2)cc1-c1cccc(Cl)c1` [Example 336, (1-{[5-(3-Chlorophenyl)-6-methoxypyridin-3-yl]methyl}-1H-1,2,4-triazol-3-yl)methanol] yielded an EC50 of under 100 nM. With `CCOc1ncc(Cn2cnc(CO)n2)cc1-c1ccc(F)c(Cl)c1` [Example 337, (1-{[5-(3-Chloro-4-fluorophenyl)-6-ethoxypyridin-3-yl]methyl}-1H-1,2,4-triazol-3-yl)methanol] the EC50 was under 100 nM. `CCOc1ncc(Cn2cnc(CO)n2)cc1-c1cc(F)cc(F)c1` [Example 338, (1-{[5-(3,5-Difluorophenyl)-6-ethoxypyridin-3-yl]methyl}-1H-1,2,4-triazol-3-yl)methanol] showed an EC50 of 100 to 1000 nM. With `CCOc1ncc(Cn2cnc(CO)n2)cc1-c1ccnc(C(F)(F)F)c1` [Example 339, [1-({6-Ethoxy-5-[2-(trifluoromethyl)pyridin-4-yl]pyridin-3-yl}methyl)-1H-1,2,4-triazol-3-yl]methanol] the EC50 was 1000 to 10000 nM. `CCOc1ncc(Cn2cnc(CO)n2)cc1-c1ccc(F)c(F)c1` [Example 340, (1-{[5-(3,4-Difluorophenyl)-6-ethoxypyridin-3-yl]methyl}-1H-1,2,4-triazol-3-yl)methanol] showed an EC50 of under 100 nM. With `CCOc1ncc(Cn2cnc(CO)n2)cc1-c1cccc(F)c1` [Example 341, (1-{[6-Ethoxy-5-(3-fluorophenyl)pyridin-3-yl]methyl}-1H-1,2,4-triazol-3-yl)methanol] the EC50 was 100 to 1000 nM. For `CCOc1ncc(Cn2cnc(CO)n2)cc1-c1ccc(F)cc1` [Example 342, (1-{[6-Ethoxy-5-(4-fluorophenyl)pyridin-3-yl]methyl}-1H-1,2,4-triazol-3-yl)methanol], the EC50 was 100 to 1000 nM. Compound `COc1cc(-c2cc(Cn3cc(CO)nc3C)cnc2OC)ccc1F` [Example 343, (1-{[5-(4-Fluoro-3-methoxyphenyl)-6-methoxypyridin-3-yl]methyl}-2-methyl-1H-imidazol-4-yl)methanol] has an EC50 of 1000 to 10000 nM. Compound `COc1ncc(Cn2cc(CO)nc2C)cc1-c1ccc(F)cc1` [Example 344, (1-{[5-(4-Fluorophenyl)-6-methoxypyridin-3-yl]methyl}-2-methyl-1H-imidazol-4-yl)methanol] has an EC50 of 100 to 1000 nM. Compound `COc1ncc(Cn2cc(CO)nc2C)cc1-c1ccc(F)c(F)c1` [Example 345, (1-{[5-(3,4-Difluorophenyl)-6-methoxypyridin-3-yl]methyl}-2-methyl-1H-imidazol-4-yl)methanol] has an EC50 of 100 to 1000 nM. `COc1ncc(Cn2cc(CO)nc2C)cc1-c1cccc(Cl)c1` [Example 346, (1-{[5-(3-Chlorophenyl)-6-methoxypyridin-3-yl]methyl}-2-methyl-1H-imidazol-4-yl)methanol] was tested, and the EC50 was 100 to 1000 nM. With `COc1ncc(Cc2cnc(N)nc2)cc1-c1ccnc(C#N)c1` [Example 347, 4-{5-[(2-Aminopyrimidin-5-yl)methyl]-2-methoxypyridin-3-yl}pyridine-2-carbonitrile] the EC50 was 100 to 1000 nM. In the case of `N#CCc1ncc(Cc2cnc(OCC(F)F)c(-c3cccc(Cl)c3)c2)cn1` [Example 348, 2-(5-{[5-(3-Chlorophenyl)-6-(2,2-difluoroethoxy)pyridin-3-yl]methyl}pyrimidin-2-yl)acetonitrile], the EC50 is reported as under 100 nM. Compound `CCOc1cc(-c2cc(Cc3cnc(N)nc3)cnc2OC)ccn1` [Example 349, 5-{[5-(2-Ethoxypyridin-4-yl)-6-methoxypyridin-3-yl]methyl}pyrimidin-2-amine] has an EC50 of under 100 nM. `CCOc1ncc(Cc2cnc(N)nc2)cc1-c1ccc(F)cc1` [Example 350, 5-{[6-Ethoxy-5-(4-fluorophenyl)pyridin-3-yl]methyl}pyrimidin-2-amine] gave an EC50 of under 100 nM. For `CCOc1ncc(Cc2cnc(N)nc2)cc1-c1ccc(Cl)cc1` [Example 351, 5-{[5-(4-Chlorophenyl)-6-ethoxypyridin-3-yl]methyl}pyrimidin-2-amine], the EC50 was 100 to 1000 nM. Work on `CCOc1ncc(Cc2cnc(N)nc2)cc1-c1ccc(F)c(C)c1` [Example 352, 5-{[6-Ethoxy-5-(4-fluoro-3-methylphenyl)pyridin-3-yl]methyl}pyrimidin-2-amine] yielded an EC50 of under 100 nM. In the case of `CCOc1ncc(Cc2cnc(N)nc2)cc1-c1ccc(F)c(F)c1` [Example 353, 5-{[5-(3,4-Difluorophenyl)-6-ethoxypyridin-3-yl]methyl}pyrimidin-2-amine], the EC50 is reported as under 100 nM. In the case of `COc1cc(-c2cc(Cc3cnc(N)nc3)cnc2OC)ccc1F` [Example 354, 5-{[5-(4-Fluoro-3-methoxyphenyl)-6-methoxypyridin-3-yl]methyl}pyrimidin-2-amine], the EC50 is reported as 100 to 1000 nM. With `CCOc1cc(-c2cc(Cc3cnc(N)nc3)cnc2OC)ccc1F` [Example 355, 5-{[5-(3-Ethoxy-4-fluorophenyl)-6-methoxypyridin-3-yl]methyl}pyrimidin-2-amine] the EC50 was 100 to 1000 nM. `COc1ncc(Cc2cnc(N)nc2)cc1-c1cccc(C#N)c1` [Example 356, 3-{5-[(2-Aminopyrimidin-5-yl)methyl]-2-methoxypyridin-3-yl}benzonitrile] gave an EC50 of 100 to 1000 nM. `COc1ncc(Cc2cnc(N)nc2)cc1-c1ccc(F)c(C)c1` [Example 357, 5-{[5-(4-Fluoro-3-methylphenyl)-6-methoxypyridin-3-yl]methyl}pyrimidin-2-amine] gave an EC50 of 100 to 1000 nM. Compound `COc1ncc(Cc2cnc(CC#N)nc2)cc1-c1ccc(F)c(F)c1` [Example 358, 2-(5-{[5-(3,4-Difluorophenyl)-6-methoxypyridin-3-yl]methyl}pyrimidin-2-yl)acetonitrile] has an EC50 of under 100 nM. Compound `COc1ncc(Cc2cnc(N)nc2)cc1-c1ccc(F)c(Cl)c1` [Example 359, 5-{[5-(3-Chloro-4-fluorophenyl)-6-methoxypyridin-3-yl]methyl}pyrimidin-2-amine] has an EC50 of under 100 nM. `COc1ncc(Cc2cnc(N)nc2)cc1-c1ccc(F)cc1` [Example 360, 5-{[5-(4-Fluorophenyl)-6-methoxypyridin-3-yl]methyl}pyrimidin-2-amine] was tested, and the EC50 was under 100 nM. `COc1ncc(Cc2cnc(N)nc2)cc1-c1ccc(Cl)c(F)c1` [Example 361, 5-{[5-(4-Chloro-3-fluorophenyl)-6-methoxypyridin-3-yl]methyl}pyrimidin-2-amine] showed an EC50 of 100 to 1000 nM. `COc1ncc(Cc2cnc(N)nc2)cc1-c1ccc(F)c(F)c1` [Example 362, 5-{[5-(3,4-Difluorophenyl)-6-methoxypyridin-3-yl]methyl}pyrimidin-2-amine] was tested, and the EC50 was under 100 nM. With `COc1ncc(Cc2ccc(CC(N)=O)cc2)cc1-c1ccc(F)c(F)c1` [Example 363, 2-(4-{[5-(3,4-Difluorophenyl)-6-methoxypyridin-3-yl]methyl}phenyl)acetamide] the EC50 was under 100 nM. `COc1ncc(Cc2ccc(CC(N)=O)cc2)cc1-c1ccc(F)cc1` [Example 364, 2-(4-{[5-(4-Fluorophenyl)-6-methoxypyridin-3-yl]methyl}phenyl)acetamide] was tested, and the EC50 was under 100 nM. For `COc1ncc(Cc2ccc(CC(N)=O)cc2)cc1-c1ccc(Cl)c(F)c1` [Example 365, 2-(4-{[5-(4-Chloro-3-fluorophenyl)-6-methoxypyridin-3-yl]methyl}phenyl)acetamide], the EC50 was under 100 nM. `COc1ncc(Cc2cnc(CC(N)=O)nc2)cc1-c1ccc(Cl)c(F)c1` [Example 366, 2-(5-{[5-(4-Chloro-3-fluorophenyl)-6-methoxypyridin-3-yl]methyl}pyrimidin-2-yl)acetamide] was tested, and the EC50 was 100 to 1000 nM. `COc1ncc(Cc2cnc(C(C)(C)C(N)=O)nc2)cc1-c1cccc(Cl)c1` [Example 367, 2-(5-{[5-(3-Chlorophenyl)-6-methoxypyridin-3-yl]methyl}pyrimidin-2-yl)-2-methylpropanamide] was tested, and the EC50 was 100 to 1000 nM. `COc1ncc(Cc2cnc(CC(N)=O)nc2)cc1-c1ccc(F)c(F)c1` [Example 368, 2-(5-{[5-(3,4-Difluorophenyl)-6-methoxypyridin-3-yl]methyl}pyrimidin-2-yl)acetamide] was tested, and the EC50 was under 100 nM. In the case of `COc1ncc(Cc2cnc(CC(N)=O)nc2)cc1-c1cccc(Cl)c1` [Example 369, 2-(5-{[5-(3-Chlorophenyl)-6-methoxypyridin-3-yl]methyl}pyrimidin-2-yl)acetamide], the EC50 is reported as under 100 nM. In the case of `NC(=O)Cc1ncc(Cc2cnc(OCC(F)(F)F)c(-c3cccc(Cl)c3)c2)cn1` [Example 370, 2-(5-{[5-(3-Chlorophenyl)-6-(2,2,2-trifluoroethoxy)pyridin-3-yl]methyl}pyrimidin-2-yl)acetamide], the EC50 is reported as 100 to 1000 nM. In the case of `NC(=O)Cc1ncc(Cc2cnc(OCC(F)F)c(-c3cccc(Cl)c3)c2)cn1` [Example 371, 2-(5-{[5-(3-Chlorophenyl)-6-(2,2-difluoroethoxy)pyridin-3-yl]methyl}pyrimidin-2-yl)acetamide], the EC50 is reported as under 100 nM. `NC(=O)Cc1ncn(Cc2cnc(OC(F)F)c(-c3cccc(Cl)c3)c2)n1` [Example 372, 2-(1-{[5-(3-Chlorophenyl)-6-(difluoromethoxy)pyridin-3-yl]methyl}-1H-1,2,4-triazol-3-yl)acetamide] showed an EC50 of under 100 nM. `COc1ncc(Cc2cnc(C(N)=O)nc2)cc1-c1ccc(F)c(F)c1` [Example 373, 5-{[5-(3,4-Difluorophenyl)-6-methoxypyridin-3-yl]methyl}pyrimidine-2-carboxamide] was tested, and the EC50 was 100 to 1000 nM. Compound `COc1ncc(Cc2cnc(C(N)=O)nc2)cc1-c1ccc(F)cc1` [Example 374, 5-{[5-(4-Fluorophenyl)-6-methoxypyridin-3-yl]methyl}pyrimidine-2-carboxamide] has an EC50 of 100 to 1000 nM. `COc1ncc(Cc2cnc(NCCO)nc2)cc1-c1ccc(F)c(F)c1` [Example 375, 2-[(5-{[5-(3,4-Difluorophenyl)-6-methoxypyridin-3-yl]methyl}pyrimidin-2-yl)amino]ethan-1-ol] showed an EC50 of under 100 nM. `COc1ncc(Cc2cnc(CO)cn2)cc1-c1cccc(Cl)c1` [Example 376, (5-{[5-(3-Chlorophenyl)-6-methoxypyridin-3-yl]methyl}pyrazin-2-yl)methanol] gave an EC50 of under 100 nM.

Reference: US11279691B2, “Substituted pyridine and pyrazine compounds as PDE4 inhibitors” (Dart Neuroscience LLC, priority 2013, dated 2022)
